Test results published in ChEMBL document CHEMBL1156230, “Identification of phenylsulfone-substituted quinoxaline (WYE-672) as a tissue selective liver X-receptor (LXR) agonist” (J Med Chem, 2010).

Experiments:
THP-1 = test: cells; details: Homo sapiens
HepG2 [1] = test: cells; details: Homo sapiens, HepG2, 3 h
HepG2 [2] = test: Agonist activity at LXR in human HepG2 cells assessed as lipid accumulation relative to T0901317
[3] = target: T1, Oxysterols receptor LXR-alpha (Homo sapiens, UniProt Q13133); test: Displacement of [3H]T0901317 from human LXRalpha ligand binding domain
T1 sequence (Q13133 whole entry): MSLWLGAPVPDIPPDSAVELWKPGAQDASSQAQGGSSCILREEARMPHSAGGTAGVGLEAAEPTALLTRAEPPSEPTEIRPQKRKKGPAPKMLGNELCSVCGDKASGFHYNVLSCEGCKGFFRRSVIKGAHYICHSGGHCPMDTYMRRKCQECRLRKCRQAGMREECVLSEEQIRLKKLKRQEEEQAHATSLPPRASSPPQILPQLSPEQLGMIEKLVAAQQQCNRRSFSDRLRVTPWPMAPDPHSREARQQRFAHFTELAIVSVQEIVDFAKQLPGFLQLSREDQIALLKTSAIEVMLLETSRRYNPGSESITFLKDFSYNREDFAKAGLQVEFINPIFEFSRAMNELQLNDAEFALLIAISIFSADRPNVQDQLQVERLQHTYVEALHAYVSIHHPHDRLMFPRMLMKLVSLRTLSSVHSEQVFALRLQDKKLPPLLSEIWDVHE

[4] = target: T2, Oxysterols receptor LXR-alpha (Homo sapiens, UniProt Q13133)
[5] = target: T3, Oxysterols receptor LXR-beta (Homo sapiens, UniProt P55055); test: Displacement of [3H]T0901317 from human LXRbeta ligand binding domain
T3 sequence (P55055 whole entry, the tested form may be a part): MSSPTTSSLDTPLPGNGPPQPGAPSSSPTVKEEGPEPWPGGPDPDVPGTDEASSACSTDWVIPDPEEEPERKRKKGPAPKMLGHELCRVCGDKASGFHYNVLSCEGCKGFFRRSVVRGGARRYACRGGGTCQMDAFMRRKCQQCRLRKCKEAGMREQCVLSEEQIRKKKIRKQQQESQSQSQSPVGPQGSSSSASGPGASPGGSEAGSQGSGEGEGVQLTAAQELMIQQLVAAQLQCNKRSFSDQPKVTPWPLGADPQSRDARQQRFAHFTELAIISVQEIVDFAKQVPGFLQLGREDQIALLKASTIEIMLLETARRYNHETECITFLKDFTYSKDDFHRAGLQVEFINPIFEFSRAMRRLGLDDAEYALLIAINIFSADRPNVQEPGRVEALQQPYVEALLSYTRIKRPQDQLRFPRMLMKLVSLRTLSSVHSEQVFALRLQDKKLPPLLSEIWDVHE

[6] = target: T3, Oxysterols receptor LXR-beta
[7] = target: T2, Oxysterols receptor LXR-alpha; remark: listed apart in the source
[8] = target: T3, Oxysterols receptor LXR-beta; remark: listed apart in the source

| Structure (SMILES) | EC50 (THP-1) [µM] | IC50 [3] [µM] | Efficacy (HepG2 [2]) [%] | other results |
| --- | --- | --- | --- | --- |
| CCc1nc2c(C(F)(F)F)cccc2nc1-c1ccc(-c2cccc(S(C)(=O)=O)c2)cc1 | 0.9 |  | 32 | EC50 (HepG2 [1]): 0.35 µM |
| CNC(=O)c1cccc(-c2ccc(-c3nc4cccc(C(F)(F)F)c4nc3C)cc2)c1 |  | > 1 |  |  |
| CS(=O)(=O)c1cccc(-c2ccc(-c3cnc4c(C(F)(F)F)cccc4n3)cc2)c1 |  | > 1 |  |  |
| Cc1nc2c(C(F)(F)F)cccc2nc1-c1cccc(-c2cccc(S(C)(=O)=O)c2)c1 |  | > 1 |  |  |
| CNS(=O)(=O)c1cccc(-c2ccc(-c3nc4cccc(C(F)(F)F)c4nc3C)cc2)c1 | 1.47 |  | 6 |  |
| CCS(=O)(=O)c1cccc(-c2ccc(-c3nc4cccc(C(F)(F)F)c4nc3C)cc2)c1 |  | > 1 |  |  |
| Cc1nc2c(Cl)cccc2nc1-c1ccc(-c2cccc(S(C)(=O)=O)c2)cc1 | 0.29 |  | 18 | EC50 (HepG2 [1]): 0.38 µM |
| CS(=O)(=O)c1cc(Cl)cc(Oc2cccc(-c3c(C(N)=O)cnc4c(C(F)(F)F)cccc34)c2)c1 | 1.89 |  | 74 | EC50 [4]: 10.9 µM; IC50 [5]: 0.061 µM; EC50 [6]: 1.7 µM; EC50 (HepG2 [1]): 3.18 µM; EC50 [7]: 5.1 µM; EC50 [8]: 0.46 µM |

The next lines start with results.

| EC50 (THP-1) [µM] | IC50 [3] [µM] | Structure (SMILES) | Efficacy (HepG2 [2]) [%] | other results |
| --- | --- | --- | --- | --- |
|  | > 1 | Cc1nc2c(C(F)(F)F)cccc2nc1-c1ccc(-c2ccccc2S(C)(=O)=O)cc1 |  |  |
|  | > 1 | Cc1nc2c(C(F)(F)F)cccc2nc1-c1ccc(-c2ccc(S(C)(=O)=O)cc2)cc1 |  |  |
|  | > 1 | Cc1nc2c(C(F)(F)F)cccc2nc1-c1cccc(-c2ccc(S(C)(=O)=O)cc2)c1 |  |  |
